Data as given in patent US10221162B2, “Triazole agonists of the APJ receptor” (priority 2015, dated 2019).

Experiments:
[1] = tested on: naive Sprague Dawley rat hearts; test: Langendorff isolated perfused rat heart (ex vivo contractility and relaxation); conditions: Langendorff apparatus, as a function of concentration
[2] = tested on: heart failure rat model; test: In vivo cardiac contractility in heart failure (MI) rat model; conditions: heart failure rats, acute administration for 30 min, result in words
Procedure: Male Lewis rats (Charles River, USA) at 2-3 months of age were used for the study. […] APJ agonists were administered dose dependently acutely for a period of 30 min.
The interaction between […] (ACE2) and Apelin biology is complicated. To investigate the interaction between the Apelin-APJ and ACE signalling pathways, we examined the improvement in cardiac function with APJ small molecule agonists in the presence of ACE inhibitor captopril in heart failure rats in vivo.

With `COc1cccc(OC)c1-n1c(NS(=O)(=O)[C@@H](C)[C@H](C)c2ncc(C)cn2)nnc1-c1cncc(C)c1` [Example 263.0, (2S,3R)—N-(4-(2,6-dimethoxyphenyl)-5-(5-methylpyridin-3-yl)-4H-1,2,4-triazol-3-yl)-3-(5-methylpyrimidin-2-yl)butane-2-sulfonamide] as the compound, how does the “left ventricular dP/dtmax (load independent cardiac contractility)” value [1] read?
Its value is “increases load independent cardiac contractility”.

And the “left ventricular dP/dtmin (load independent cardiac relaxation)” value [1]?
The value was “increases load independent cardiac relaxation”.

And the “cardiac contractility as measured by dP/dt” value [2]?
Its value is “increase in cardiac contractility”.
